Results: US5326788A, “Biological fluid purification system” (priority 1992, dated 1994)
Several values for one entry are separate records, joined by “and”; a condition that tells them apart may be missing. Equal values may be shown once.

Columns and labels:
HIV = test: Incubation time of free HIV virus with hypericin needed to inhibit infectivity; assay type: cell-based, Human Immunodeficiency Virus (HIV)
[1] = Effect of hypericin on hematologic parameters and blood chemistries of mouse blood; set-up: Hematocrit: unit not given here; conditions: for BUN / Hb / Hematocrit / WBC / albumin / alk. phos. / calcium / chloride / cholesterol / creatinine / globulins / glucose / iron / phosphorous / retics / sodium / total bilirubin / total protein / triglycerides / uric acid: mouse blood
Procedure: Analogous experiments to assess the effect of hypericin on routine clinical chemistries and hematologic parameters were determined in a commercial laboratory on mouse blood using higher concentrations of hypericin. Eight blood samples drawn in parallel were treated with hypericin ranging in concentration from 2.5 micrograms/ml to 200 micrograms/ml of whole blood.

Structure (SMILES): Cc1cc(O)c2c(=O)c3c(O)cc(O)c4c5c(O)cc(O)c6c(=O)c7c(O)cc(C)c8c1c2c(c34)c(c78)c65 [hypericin]
- inhibition of virus infectivity (HIV; 10 and 5 minutes incubation): complete
- inhibition of virus infectivity (HIV; only the time to add compound and centrifuge): significant inhibition
- BUN ([1]; 2.5 μg hypericin): 18 mg/dL and 17 mg/dL
- Hb ([1]; 2.5 μg hypericin): 12.7 gm, dl
- Hematocrit ([1]; 2.5 μg hypericin): 38.3 and 37.8
- WBC ([1]; 2.5 μg hypericin): 4.6 /cumm and 4.8 /cumm
- albumin ([1]; 2.5 μg hypericin): 3.4 g/dL and 2.6 g/dL
- alk. phos. ([1]; 2.5 μg hypericin): 140 IU/l and 121 IU/l
- calcium ([1]; 2.5 μg hypericin): 6.7 mg/dL and 5.4 mg/dL
- chloride ([1]; 2.5 μg hypericin): 113 meq/l and 102 meq/l
- cholesterol ([1]; 2.5 μg hypericin): 149 mg/dL and 143 mg/dL
- creatinine ([1]; 2.5 μg hypericin): 0.4 mg/dL
- globulins ([1]; 2.5 μg hypericin): 2.6 g/dL and 3.2 g/dL
- glucose ([1]; 2.5 μg hypericin): 113 mg/dL and 68 mg/dL
- iron ([1]; 2.5 μg hypericin): 219 mog/dl and 169 mog/dl
- phosphorous ([1]; 2.5 μg hypericin): 8.1 mg/dL and 7.2 mg/dL
- retics ([1]; 2.5 μg hypericin): 1.5% and 2.3%
- sodium ([1]; 2.5 μg hypericin): 150 meq/l and 138 meq/l
- total bilirubin ([1]; 2.5 μg hypericin): 0.8 mg/dL and 1.2 mg/dL
- total protein ([1]; 2.5 μg hypericin): 6.0 g/dL and 5.8 g/dL
- triglycerides ([1]; 2.5 μg hypericin): 80 mg/dL and 77 mg/dL
- uric acid ([1]; 2.5 μg hypericin): 2.6 mg/dL and 2.8 mg/dL
- BUN ([1]; 5.0 μg hypericin): 18 mg/dL
- Hb ([1]; 5.0 μg hypericin): 12.9 gm, dl and 12.4 gm, dl
- Hematocrit ([1]; 5.0 μg hypericin): 38.5
- WBC ([1]; 5.0 μg hypericin): 4.7 /cumm and 4.5 /cumm
- albumin ([1]; 5.0 μg hypericin): 3.5 g/dL
- alk. phos. ([1]; 5.0 μg hypericin): 140 IU/l
- calcium ([1]; 5.0 μg hypericin): 7.0 mg/dL
- chloride ([1]; 5.0 μg hypericin): 113 meq/l
- cholesterol ([1]; 5.0 μg hypericin): 156 mg/dL
- creatinine ([1]; 5.0 μg hypericin): 0.4 mg/dL
- glucose ([1]; 5.0 μg hypericin): 112 mg/dL
- iron ([1]; 5.0 μg hypericin): 220 mog/dl
- phosphorous ([1]; 5.0 μg hypericin): 8.1 mg/dL
- retics ([1]; 5.0 μg hypericin): 2.2% and 2.0%
- sodium ([1]; 5.0 μg hypericin): 150 meq/l
- total bilirubin ([1]; 5.0 μg hypericin): 0.8 mg/dL
- triglycerides ([1]; 5.0 μg hypericin): 85 mg/dL
- uric acid ([1]; 5.0 μg hypericin): 2.7 mg/dL
- BUN ([1]; 10 μg hypericin): 18 mg/dL
- Hb ([1]; 10 μg hypericin): 12.8 gm, dl and 12.3 gm, dl
- Hematocrit ([1]; 10 μg hypericin): 37.8
- WBC ([1]; 10 μg hypericin): 4.5 /cumm
- albumin ([1]; 10 μg hypericin): 3.5 g/dL
- alk. phos. ([1]; 10 μg hypericin): 138 IU/l and 140 IU/l
- calcium ([1]; 10 μg hypericin): 6.7 mg/dL
- chloride ([1]; 10 μg hypericin): 112 meq/l
- cholesterol ([1]; 10 μg hypericin): 155 mg/dL
- creatinine ([1]; 10 μg hypericin): 0.3 mg/dL
- globulins ([1]; 10 μg hypericin): 3.0 g/dL
- glucose ([1]; 10 μg hypericin): 113 mg/dL
- iron ([1]; 10 μg hypericin): 218 mog/dl and 220 mog/dl
- phosphorous ([1]; 10 μg hypericin): 8.2 mg/dL and 8.1 mg/dL
- retics ([1]; 10 μg hypericin): 1.7% and 0.5%
- sodium ([1]; 10 μg hypericin): 148 meq/l
- total bilirubin ([1]; 10 μg hypericin): 0.8 mg/dL and 0.9 mg/dL
- total protein ([1]; 10 μg hypericin): 6.5 g/dL
- triglycerides ([1]; 10 μg hypericin): 67 mg/dL and 64 mg/dL
- uric acid ([1]; 10 μg hypericin): 2.9 mg/dL and 3.0 mg/dL
- BUN ([1]; 25 μg hypericin): 18 mg/dL
- Hb ([1]; 25 μg hypericin): 12.8 gm, dl
- Hematocrit ([1]; 25 μg hypericin): 37.7 and 37.9
- WBC ([1]; 25 μg hypericin): 4.7 /cumm
- albumin ([1]; 25 μg hypericin): 3.7 g/dL and 3.6 g/dL
- alk. phos. ([1]; 25 μg hypericin): 136 IU/l and 134 IU/l
- calcium ([1]; 25 μg hypericin): 6.7 mg/dL and 6.3 mg/dL
- chloride ([1]; 25 μg hypericin): 111 meq/l and 110 meq/l
- cholesterol ([1]; 25 μg hypericin): 166 mg/dL and 162 mg/dL
- creatinine ([1]; 25 μg hypericin): 0.3 mg/dL
- globulins ([1]; 25 μg hypericin): 3.1 g/dL and 3.3 g/dL
- glucose ([1]; 25 μg hypericin): 111 mg/dL and 110 mg/dL
- iron ([1]; 25 μg hypericin): 218 mog/dl and 219 mog/dl
- phosphorous ([1]; 25 μg hypericin): 8.2 mg/dL and 8.1 mg/dL
- retics ([1]; 25 μg hypericin): 0.8% and 0.3%
- sodium ([1]; 25 μg hypericin): 146 meq/l and 144 meq/l
- total bilirubin ([1]; 25 μg hypericin): 0.9 mg/dL
- total protein ([1]; 25 μg hypericin): 6.8 g/dL and 6.9 g/dL
- triglycerides ([1]; 25 μg hypericin): 80 mg/dL and 84 mg/dL
- uric acid ([1]; 25 μg hypericin): 3.9 mg/dL and 3.8 mg/dL
- BUN ([1]; 50 μg hypericin): 18 mg/dL
- Hb ([1]; 50 μg hypericin): 12.8 gm, dl
- Hematocrit ([1]; 50 μg hypericin): 38.1 and 38.0
- WBC ([1]; 50 μg hypericin): 4.8 /cumm
- albumin ([1]; 50 μg hypericin): 3.5 g/dL
- alk. phos. ([1]; 50 μg hypericin): 141 IU/l
- calcium ([1]; 50 μg hypericin): 6.6 mg/dL and 6.8 mg/dL
- chloride ([1]; 50 μg hypericin): 113 meq/l
- cholesterol ([1]; 50 μg hypericin): 152 mg/dL and 150 mg/dL
- creatinine ([1]; 50 μg hypericin): 0.4 mg/dL
- globulins ([1]; 50 μg hypericin): 3.0 g/dL
- glucose ([1]; 50 μg hypericin): 113 mg/dL and 114 mg/dL
- iron ([1]; 50 μg hypericin): 220 mog/dl and 221 mog/dl
- phosphorous ([1]; 50 μg hypericin): 8.3 mg/dL and 8.2 mg/dL
- retics ([1]; 50 μg hypericin): 1.4% and 2.5%
- sodium ([1]; 50 μg hypericin): 148 meq/l
- total bilirubin ([1]; 50 μg hypericin): 0.8 mg/dL and 0.9 mg/dL
- total protein ([1]; 50 μg hypericin): 6.5 g/dL
- triglycerides ([1]; 50 μg hypericin): 61 mg/dL and 62 mg/dL
- uric acid ([1]; 50 μg hypericin): 3.0 mg/dL and 2.8 mg/dL
- BUN ([1]; 100 μg hypericin): 18 mg/dL and 17 mg/dL
- Hb ([1]; 100 μg hypericin): 12.8 gm, dl and 13.2 gm, dl
- Hematocrit ([1]; 100 μg hypericin): 37.8 and 38.4
- WBC ([1]; 100 μg hypericin): 4.9 /cumm and 5.0 /cumm
- albumin ([1]; 100 μg hypericin): 3.5 g/dL and 3.4 g/dL
- alk. phos. ([1]; 100 μg hypericin): 140 IU/l and 138 IU/l
- calcium ([1]; 100 μg hypericin): 6.6 mg/dL
- cholesterol ([1]; 100 μg hypericin): 153 mg/dL and 151 mg/dL
- creatinine ([1]; 100 μg hypericin): 0.4 mg/dL
- globulins ([1]; 100 μg hypericin): 3.0 g/dL and 2.7 g/dL
- iron ([1]; 100 μg hypericin): 220 mog/dl and 216 mog/dl
- phosphorous ([1]; 100 μg hypericin): 8.2 mg/dL and 8.0 mg/dL
- retics ([1]; 100 μg hypericin): 0.8% and 0.7%
- sodium ([1]; 100 μg hypericin): 149 meq/l and 146 meq/l
- total bilirubin ([1]; 100 μg hypericin): 1.0 mg/dL
- total protein ([1]; 100 μg hypericin): 6.5 g/dL and 6.1 g/dL
- triglycerides ([1]; 100 μg hypericin): 92 mg/dL and 87 mg/dL
- uric acid ([1]; 100 μg hypericin): 3.2 mg/dL and 3.1 mg/dL
- BUN ([1]; 200 μg hypericin): 18 mg/dL
- Hb ([1]; 200 μg hypericin): 12.6 gm, dl and 12.7 gm, dl
- Hematocrit ([1]; 200 μg hypericin): 37.5 and 34.6
- WBC ([1]; 200 μg hypericin): 4.4 /cumm and 4.6 /cumm
- albumin ([1]; 200 μg hypericin): 3.5 g/dL
- alk. phos. ([1]; 200 μg hypericin): 139 IU/l and 140 IU/l
- calcium ([1]; 200 μg hypericin): 6.6 mg/dL
- chloride ([1]; 200 μg hypericin): 110 meq/l and 111 meq/l
- cholesterol ([1]; 200 μg hypericin): 155 mg/dL and 157 mg/dL
- creatinine ([1]; 200 μg hypericin): 0.4 mg/dL
- globulins ([1]; 200 μg hypericin): 3.3 g/dL and 2.9 g/dL
- glucose ([1]; 200 μg hypericin): 122 mg/dL and 111 mg/dL
- iron ([1]; 200 μg hypericin): 211 mog/dl and 215 mog/dl
- phosphorous ([1]; 200 μg hypericin): 7.9 mg/dL and 8.0 mg/dL
- retics ([1]; 200 μg hypericin): 2.8% and 0.6%
- sodium ([1]; 200 μg hypericin): 145 meq/l and 147 meq/l
- total bilirubin ([1]; 200 μg hypericin): 1.1 mg/dL
- total protein ([1]; 200 μg hypericin): 6.8 g/dL and 6.4 g/dL
- triglycerides ([1]; 200 μg hypericin): 92 mg/dL and 89 mg/dL
- uric acid ([1]; 200 μg hypericin): 3.8 mg/dL and 3.6 mg/dL
- effect on clinical chemistries and hematological parameters (summary) ([1]; up to 200 micrograms/ml): did not significantly affect
